According to patent US20230203003A1, “Notch Inhibitors and Uses Thereof” (StemSynergy Therapeutics, Inc., priority 2020, published 2023):
pEC50, pIC50: −log10 of the molar value. Structures can show the parent of a compound that is named as a salt. Where two headings read alike, the source gives them in different places.

Assays:
hNotch1ICD = target: T1, hNotch1ICD (Homo sapiens, UniProt P46531); assay: Notch1 Reporter Assay (Dox-inducible Notch1-ICD, CSL-responsive luciferase in 293A cells); assay type: cell-based; conditions: for pIC50: read-out: Notch1 Reporter Assay IC50
T1 construct: pLV[Tet]-Puro-TRE3G>Notch1-ICD; expressed in transfected cells; host or cells: 293A cells
T1 sequence (P46531 1754-2555 limits assumed): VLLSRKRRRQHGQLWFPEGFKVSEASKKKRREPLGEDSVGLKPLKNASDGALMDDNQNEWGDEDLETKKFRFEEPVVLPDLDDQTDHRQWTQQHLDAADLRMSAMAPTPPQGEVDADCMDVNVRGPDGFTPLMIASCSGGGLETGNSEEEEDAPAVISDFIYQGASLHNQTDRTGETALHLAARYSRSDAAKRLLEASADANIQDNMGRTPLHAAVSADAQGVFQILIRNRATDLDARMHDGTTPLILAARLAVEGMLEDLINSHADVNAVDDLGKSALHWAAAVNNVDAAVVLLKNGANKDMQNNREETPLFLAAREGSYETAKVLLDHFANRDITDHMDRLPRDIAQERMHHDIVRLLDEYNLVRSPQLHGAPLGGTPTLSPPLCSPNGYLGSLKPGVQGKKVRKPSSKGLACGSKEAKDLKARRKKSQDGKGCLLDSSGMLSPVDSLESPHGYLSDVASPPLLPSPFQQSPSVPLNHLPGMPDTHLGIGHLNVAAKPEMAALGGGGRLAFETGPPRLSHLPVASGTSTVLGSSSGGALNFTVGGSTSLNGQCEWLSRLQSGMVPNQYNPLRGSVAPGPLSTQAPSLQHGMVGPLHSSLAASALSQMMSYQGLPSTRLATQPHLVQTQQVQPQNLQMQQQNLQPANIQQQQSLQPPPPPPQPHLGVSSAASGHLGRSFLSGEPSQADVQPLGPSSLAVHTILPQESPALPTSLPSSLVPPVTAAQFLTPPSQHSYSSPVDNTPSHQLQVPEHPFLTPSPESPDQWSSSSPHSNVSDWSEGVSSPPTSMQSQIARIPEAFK
Experimental: 293A cells expressing 1) pCMV-Tet-On 3G, 2) pLV[Tet]-Puro-TRE3G>Notch1-ICD, 3) pLV[Tet]-Puro-TRE3G>Notch2-ICD, 4) pLV[Tet]-Puro-TRE3G>Notch3-ICD, and 5) pCSL-RElement-Luc were used. When Doxycycline is added, the Tet-ON gene activates expression of hNotch1ICD, which together with endogenous NTC components binds to CSL responsive elements (pCSL-RElement-Luc) and expresses luciferase. 1 ×× 10^4 cells are plated in 100 µL (96-well format). 24 h later, compounds (10 mM stock in DMSO) are diluted in DMSO to 200X, then added (5 ul into 1 mL) to cell culture media containing 50 ng/mL Dox. This is then added 1:1 to cells. Final DMSO = 0.25%, Dox = 25 ng/mL. After 24 h, media is discarded, and cells are lysed in passive lysis buffer (Promega). Cells are rocked at room temperature for 15 min and then lysate is divided for luciferase assay (Luciferase Assay System, Promega) and cell viability (CellTiter Glo 2.0, Promega). Raw luciferase is normalized to cell viability, and then scaled to DMSO wells. Results are analyzed and IC50′s are determined in GraphPad by nonlinear regression curve fitting (4 parameter) of dose response curves.

[1] = tested on: OE33 Esophageal Adenocarcinoma cell line; assay: OE33 Colony Formation Assay; assay type: cell-based; conditions: OE33 cells, 200 cells/well, 7 days, CellTiter-Glo
Experimental: OE33 Colony Formation Assay
The OE33 Esophageal Adenocarcinoma cell line was cultured and plated into 96-well tissue culture plates under sparse conditions (200 cells/well). Test compounds were serially diluted in DMSO and then into culture media (final DMSO concentration = 0.1%). Compound/media was then added to cells every 48 hours for a total of 7 days. Clonogenic growth was assessed using the CellTiter-Glo reagent, according to manufacturer (Promega) specifications. Percent inhibition was calculated as the percent of luminescence normalized to control (0.1% DMSO) wells. Nonlinear regression curve fitting was performed using GraphPad Prism software to determine EC50′s.

[2] = 293A cells, 24 h, luciferase normalized to cell viability
[3] = value printed in the synthesis heading of the compound

| pIC50 (hNotch1ICD; [3]) | SMILES | pIC50 (hNotch1ICD; [2]) | further results |
| --- | --- | --- | --- |
| – | CC(C)Cn1c(=O)c(C(=O)Nc2cc(F)ccn2)c(O)c2ccccc21 [compound 522, N-(4-fluoropyridin-2-yl)-4-hydroxy-1-isobutyl-2-oxo-1,2-dihydroquinoline-3-carboxamide] | 4.76 | pEC50 ([1]; Homo sapiens, OE33, 168 h): 5.22 |
| – | CC(C)Cn1c(=O)c(C(=O)Nc2ccc(N3CCN(C)CC3)c(F)c2)c(O)c2ccccc21 [572(02)] | – | pEC50 ([1]; Homo sapiens, OE33, 168 h): 5.66 |
| – | Cc1cccnc1NC(=O)c1c(O)c2ccccc2n(Cc2ccccc2)c1=O [SSTN-408] | – | pEC50 ([1]; listed as 408): 5.43 |
| – | CC(C)Cn1c(=O)c(C(=O)Nc2cc(F)c(N3CCN(C)CC3)c(F)c2)c(O)c2ccccc21 [582(02)] | 5.72 | pEC50 ([1]; Homo sapiens, OE33, 168 h): 5.96 |
| – | Cc1cnccc1NC(=O)c1c(O)c2ccccc2n(CC(C)C)c1=O [compound 551, 4-hydroxy-1-isobutyl-N-(3-methylpyridin-4-yl)-2-oxo-1,2-dihydroquinoline-3-carboxamide] | 5.17 | – |
| – | O=C(Nc1ncccc1O)c1c(O)c2c([nH]c1=O)CCCC2 [SSTN-402] | 4.92 | – |
| 4.74 | Cc1cccnc1NC(=O)c1c(O)c2cc(N3CCN(C)CC3)ccc2n(CC(C)C)c1=O [SSTN-579, 4-hydroxy-1-isobutyl-6-(4-methylpiperazin-1-yl)-N-(3-methylpyridin-2-yl)-2-oxo-1,2-dihydroquinoline-3-carboxamide] | – | – |
| 5.01 | CC(C)Cn1c(=O)c(C(=O)Nc2cccc(F)c2)c(O)c2cc(N3CCN(C)CC3)ccc21 [SSTN-577, N-(3-fluorophenyl)-4-hydroxy-1-isobutyl-6-(4-methylpiperazin-1-yl)-2-oxo-1,2-dihydroquinoline-3-carboxamide] | – | – |
| – | Cc1cccnc1NC(=O)c1c(O)c2c(Br)cccc2n(CC(C)C)c1=O [compound 563, 5-bromo-4-hydroxy-1-isobutyl-N-(3-methylpyridin-2-yl)-2-oxo-1,2-dihydroquinoline-3-carboxamide] | 5.10 | – |
| – | CC(C)Cn1c(=O)c(C(=O)Nc2ccccn2)c(O)c2ccccc21 [compound 518, 4-hydroxy-1-isobutyl-2-oxo-N-(pyridin-2-yl)-1,2-dihydroquinoline-3-carboxamide] | 4.73 | – |
| 5.11 | CC(C)Cn1c(=O)c(C(=O)Nc2cccc(F)c2N2CCN(C)CC2)c(O)c2ccccc21 [SSTN-581_HCl salt, N-(3-fluoro-2-(4-methylpiperazin-1-yl)phenyl)-4-hydroxy-1-isobutyl-2-oxo-1,2-dihydroquinoline-3-carboxamide hydrochloride salt] | – | – |
| 5.72 | CC(C)Cn1c(=O)c(C(=O)Nc2cc(F)c(N3CCN(C)CC3)c(F)c2)c(O)c2ccccc21 [SSTN-582_HCl salt, N-(3,5-difluoro-4-(4-methylpiperazin-1-yl)phenyl)-4-hydroxy-1-isobutyl-2-oxo-1,2-dihydroquinoline-3-carboxamide hydrochloride salt] | – | – |
| – | COc1ccnc(NC(=O)c2c(O)c3ccccc3n(CC(C)C)c2=O)c1 [compound 532, 4-hydroxy-1-isobutyl-N-(4-methoxypyridin-2-yl)-2-oxo-1,2-dihydroquinoline-3-carboxamide] | 4.91 | – |
| – | Cc1ncccc1NC(=O)c1c(O)c2ccccc2n(CC(C)C)c1=O [compound 540, 4-hydroxy-1-isobutyl-N-(2-methylpyridin-3-yl)-2-oxo-1,2-dihydroquinoline-3-carboxamide] | 4.73 | – |
| – | Cc1cccnc1NC(=O)c1c(O)c2ccc(N3CCN(C)CC3)cc2n(CC(C)C)c1=O [580(01)] | 4.88 | – |
| – | CC(C)Cn1c(=O)c(C(=O)Nc2ccn(C)n2)c(O)c2ccccc21 [compound 533, 4-hydroxy-1-isobutyl-N-(1-methyl-1H-pyrazol-3-yl)-2-oxo-1,2-dihydroquinoline-3-carboxamide] | 4.65 | – |
| – | CC(C)Cn1c(=O)c(C(=O)Nc2ccc(N3CCN(C)CC3)cc2)c(O)c2ccccc21 [569(01)] | 5.08 | – |
| 5.22 | CC(C)Cn1c(=O)c(C(=O)Nc2ccc(F)c(N3CCN(C)CC3)c2)c(O)c2ccccc21 [SSTN-584_HCl salt, N-(4-fluoro-3-(4-methylpiperazin-1-yl)phenyl)-4-hydroxy-1-isobutyl-2-oxo-1,2-dihydroquinoline-3-carboxamide hydrochloride salt] | – | – |
| 4.67 | CC(C)Cn1c(=O)c(C(=O)Nc2ccccc2N2CCN(C)CC2)c(O)c2ccccc21 [SSTN-568, 4-hydroxy-1-isobutyl-N-(2-(4-methylpiperazin-1-yl)phenyl)-2-oxo-1,2-dihydroquinoline-3-carboxamide] | – | – |

| pIC50 (hNotch1ICD; [3]) | SMILES | pIC50 (hNotch1ICD; [2]) | further results |
| --- | --- | --- | --- |
| – | Cc1cc(NC(=O)c2c(O)c3ccccc3n(CC(C)C)c2=O)n[nH]1 [compound 549, 4-hydroxy-1-isobutyl-N-(5-methyl-1H-pyrazol-3-yl)-2-oxo-1,2-dihydroquinoline-3-carboxamide] | 5.00 | – |
| 5.47 | CC(C)Cn1c(=O)c(C(=O)Nc2ccc(N3CCN(C)CC3)c(F)c2)c(O)c2ccccc21 [SSTN-572_HCl salt, N-(3-fluoro-4-(4-methylpiperazin-1-yl)phenyl)-4-hydroxy-1-isobutyl-2-oxo-1,2-dihydroquinoline-3-carboxamide hydrochloride salt] | – | – |
| – | Cc1cccnc1NC(=O)c1c(O)c2cc(N3CCN(C)CC3)ccc2n(CC(C)C)c1=O [579(01)] | 4.74 | – |
| 5.19 | CC(C)Cn1c(=O)c(C(=O)Nc2ccc(F)cc2N2CCN(C)CC2)c(O)c2ccccc21 [SSTN-570, N-(4-fluoro-2-(4-methylpiperazin-1-yl)phenyl)-4-hydroxy-1-isobutyl-2-oxo-1,2-dihydroquinoline-3-carboxamide] | – | – |
| 4.75 | CC(C)Cn1c(=O)c(C(=O)Nc2ccc(N3CCN(C)CC3)c(F)c2)c(O)c2ccccc21 [SSTN-572, N-(3-fluoro-4-(4-methylpiperazin-1-yl)phenyl)-4-hydroxy-1-isobutyl-2-oxo-1,2-dihydroquinoline-3-carboxamide] | – | – |
| – | CC(C)Cn1c(=O)c(C(=O)Nc2ccc(F)c(N3CCN(C)CC3)c2)c(O)c2ccccc21 [584(01)] | 5.35 | – |
| – | CC(C)Cn1c(=O)c(C(=O)Nc2cccc(F)c2)c(O)c2c(N3CCN(C)CC3)cccc21 [588(01)] | 4.99 | – |
| – | CC(C)Cn1c(=O)c(C(=O)Nc2cccc(F)c2)c(O)c2ccc(Br)cc21 [SSTN-567, 7-bromo-N-(3-fluorophenyl)-4-hydroxy-1-isobutyl-2-oxo-1,2-dihydroquinoline-3-carboxamide] | 4.48 | – |
| – | COc1ccc2c(c1)c(O)c(C(=O)Nc1ncccc1C)c(=O)n2CC(C)C [compound 514, 4-hydroxy-1-isobutyl-6-methoxy-N-(3-methylpyridin-2-yl)-2-oxo-1,2-dihydroquinoline-3-carboxamide] | 4.87 | – |
| 4.99 | CC(C)Cn1c(=O)c(C(=O)Nc2cccc(F)c2)c(O)c2c(N3CCN(C)CC3)cccc21 [SSTN-588, N-(3-fluorophenyl)-4-hydroxy-1-isobutyl-5-(4-methylpiperazin-1-yl)-2-oxo-1,2-dihydroquinoline-3-carboxamide] | – | – |
| – | CC(C)Cn1c(=O)c(C(=O)Nc2cccc(F)c2)c(O)c2c(N3CCN(C)CC3)cccc21 [588(02)] | 5.01 | – |
| 5.34 | CC(C)Cn1c(=O)c(C(=O)Nc2ccc(F)c(N3CCN(C)CC3)c2)c(O)c2ccccc21 [SSTN-584_Formate salt, N-(4-fluoro-3-(4-methylpiperazin-1-yl)phenyl)-4-hydroxy-1-isobutyl-2-oxo-1,2-dihydroquinoline-3-carboxamide formate salt] | – | – |
| – | Cc1cccnc1NC(=O)c1c(O)c2ccccc2n(Cc2ccccc2)c1=O [SSTN-452] | – | pEC50 ([1]; listed as 452): 5.80 |
| – | CC(C)Cn1c(=O)c(C(=O)Nc2ccc(F)cc2N2CCN(C)CC2)c(O)c2ccccc21 [570(01)] | 5.19 | – |
| – | CC(C)Cn1c(=O)c(C(=O)Nc2cc(F)cc(N3CCN(C)CC3)c2)c(O)c2ccccc21 [583(01)] | 5.09 | – |
| 5.07 | CC(C)Cn1c(=O)c(C(=O)Nc2ccc(N3CCN(C)CC3)cc2)c(O)c2ccccc21 [SSTN-569, 4-hydroxy-1-isobutyl-N-(4-(4-methylpiperazin-1-yl)phenyl)-2-oxo-1,2-dihydroquinoline-3-carboxamide] | – | – |
| – | Cc1cccnc1NC(=O)c1c(O)c2ccc(N3CCN(C)CC3)cc2n(CC(C)C)c1=O [580(02)] | 4.85 | – |
| – | Cc1cc(NC(=O)c2c(O)c3ccccc3n(CC(C)C)c2=O)on1 [compound 517, 4-hydroxy-1-isobutyl-N-(3-methylisoxazol-5-yl)-2-oxo-1,2-dihydroquinoline-3-carboxamide] | – | IC50 (hNotch1ICD; Notch1 Reporter Assay IC50, µM, 293A cells, 24 h, luciferase normalized to cell viability): 22.6 µM |
